Results on 90 compounds are retold here after a melting point compilation (Tetko et al.; mined from patent text by program, amines drawn as free bases though some values may be those of a salt).

Structures are written as SMILES.

Compound `COc1ccc(C2=NN(C(c3ccccc3)c3ccccc3)C(=O)[C@H]3CCCC[C@@H]23)cc1OC` (relative stereo) showed a melting point of 133 to 135 °C.

`O=C(CBr)CCc1ccc(I)cc1` registered a melting point of 76 to 77 °C.

For the compound `COc1cc(CN2C(=O)C3(COc4cc5c(cc43)OCCO5)c3ccccc32)cc(OC)c1` (stereo not given), the melting point lay in the range of 192 to 195 °C.

Take `CCNCC1CCN(c2c(F)cc3c(=O)c(C(=O)O)cn(C(C)C)c3c2F)C1` (stereo not given): the melting point lay within 230 to 231 °C.

For the compound `CCc1cc(Nc2ccc(N)cc2)n2nccc2n1`, the melting point was in the range of 153 to 154 °C.

`Cc1c(F)c(=O)n(-c2cc(OC(C)C)c(Cl)cc2F)c(=O)n1C` came in with a melting point of 139 to 141 °C.

Take `O=C1CCCNc2ccc(Br)cc21`: the melting point lay in the range of 99 to 101 °C.

With `COc1ccc(Cc2ccc3c(c2)OCO3)c(OC)c1`, the melting point was determined as 51 °C.

As to `O=CN(O)C(CCCO)CS(=O)(=O)c1ccc(-c2ccc(Cl)cc2)cc1` (stereo not given), the melting point came to 160 °C.

In turn, `CN(O)C(=O)NCCCCCCOc1ccc(-c2ccccc2)cc1` displayed a melting point of 148 to 150 °C.

Turning to `CC(C)(O)c1cccc(-c2ccc3nc(-c4ccc5cc[nH]c5c4)cn3c2)c1`, the melting point lay within 203 to 204 °C.

`CCc1ccc(Oc2cnc[nH]c2=O)cc1` yielded a melting point of 144 to 146 °C.

In the case of `CCOP(=O)(Cc1c(C)cc(O)cc1C1CCCCC1)OCC`, the melting point came out at 73 °C.

In turn, `Cc1cc(CCCCCOc2ccc(-c3ccco3)cc2)on1` had a melting point of 86 to 88 °C.

`Cc1cc(S(=O)(=O)Nc2cccc3ccccc23)c2c(C)ccc(C(C)C)cc1-2` returned a melting point of 140 to 142 °C.

`CNC(=O)CN1CCC(C(O)(c2ccc(F)cc2)c2ccc(F)cc2)CC1` registered a melting point of 122 to 124 °C.

As for `O=C(O)c1cc(-c2ccc(Cl)cc2)nc(-c2ccc(Oc3ccc(F)cc3)cc2)c1`, the melting point fell in the range of 201 to 202 °C.

Take `CC(=O)N1CCN=C1Nc1cc(C)nn1-c1ccc(F)cc1`: the melting point lay in the range of 189 to 191 °C.

In the case of `Cn1ccnc1-c1ccc(C(=O)CNC(=O)[C@H](Cc2ccccn2)NC(=O)OC(C)(C)C)cc1`, the melting point was in the range of 120 to 124 °C.

`C1=C(c2ccccc2)CCN(c2nsc3ccccc23)C1` had a melting point of 272 to 273 °C.

As to `CCOC(=O)c1cnc2c3ccccc3ccn2c1=O`, the melting point fell in the range of 183 to 184 °C.

With `C=CCN(CC=C)c1nc(NCC(=O)OC)n2oc(=O)nc2n1`, the melting point was 173 to 174 °C.

Turning to `N#CCCN1CCOC(c2ccccc2)(c2ccccc2)CC1`, the melting point lay in the range of 106 to 107 °C.

`CC(C)(C)c1cc(SCCCC(=O)O)cc(C(C)(C)C)c1O` had a melting point of 112 to 114 °C.

For `COC(=O)c1cccc(-c2ccccc2C#N)c1`, the melting point was 83 to 85 °C.

The compound `CC(=O)c1cc2c(c(C(=O)O)c1)NCCC2` showed a melting point of 229 °C.

For the compound `CCOC(=O)c1sc(SC)c2c1CCC(C(OCC)OCC)C2=O` (stereo not given), the melting point was in the range of 113 to 114 °C.

With `CCOC(=O)C1CCN(Cc2c[nH]c3cccc(F)c23)CC1`, the melting point was in the range of 96 to 105 °C.

As for `CCc1[nH]n(C2CCCC2)c2nc(CN3CCc4ccccc4C3)nc(=O)c1-2`, the melting point lay in the range of 149 to 151 °C.

Take `COc1cc2c(cc1OC)CCCC(C(=O)N1CCN(Cc3cc(OC)c(OC)c(OC)c3)CC1CN(C)C)=C2` (stereo not given): the melting point is 167 to 169 °C.

Consider `CC(C)C(=O)Nc1ccc(C(=O)Nc2ccccc2N)cc1`, for which the melting point was found to be 248 °C.

Consider `CSc1ccc(CCC(C)=NO)cc1`, for which the melting point came out at 71 °C.

Compound `COc1ccc(S(=O)(=O)N2CCn3c(c(C(N)=O)c(Cl)c3-c3ccccc3)C2)cc1` yielded a melting point of 194 to 195 °C.

In turn, `CC(C)(C)CC(NC(=O)c1cccc(Cl)c1)Nc1c(Nc2cccnc2)c(=O)c1=O` (stereo not given) gave a melting point of 238 to 239 °C.

On to `Cc1cccc(CCc2c(C(C)C)nc(C(C)C)c(CO)c2-c2ccc(F)cc2)c1`, for which the melting point was in the range of 148 to 150 °C.

Take `COC(=O)n1nc(-c2cc(Cl)c(C)c(Cl)c2)ccc1=O`: the melting point fell in the range of 203 to 206 °C.

Regarding `COc1ccc(-c2c(Cl)c(CN3C(=O)COC3=O)nc3sc4c(c23)CCC(C(N)=O)C4)cc1` (stereo not given), the melting point was in the range of 155 to 156 °C.

With `CNc1ccc2c(c1)N1CCCN=C1S2`, the melting point amounted to 184 °C.

Turning to `CC(=O)Nc1cccc2c1CN(c1ccc3ccn(C)c3c1)C2=O`, the melting point was 180 to 184 °C.

Consider `Fc1ccccc1C1=NCc2cnc(Cl)nc2-c2ccc(Cl)cc21`, for which the melting point was 157 to 160 °C.

`COc1cc(OC)nc(C(CC(=O)C(C)(C)C)C(=O)NS(C)(=O)=O)n1` (stereo not given): the melting point is 97 to 98 °C.

`Cc1c(O)c(=O)[nH]c2ccccc2c1=O`: the melting point worked out at 252 °C.

Consider `CCCCCCCCCCCCCCOc1ccc(NC(=O)Nc2cccc(CBr)c2)cc1`, for which the melting point was in the range of 164 to 169 °C.

With `O=C(O)c1ccc(OC2CC2)cc1`, the melting point is 153 to 155 °C.

As to `CC(C)(C)c1cccc(S(=O)(=O)n2c(Cc3ccc(C(=O)O)cc3)c(F)c3cc(C(F)(F)F)ccc32)c1`, the melting point turned out to be 158 °C.

`CCC(CSC#N)Nc1ccc(Cl)cc1[N+](=O)[O-]` (stereo not given): the melting point lay within 126 to 128 °C.

As for `CC(C)n1nc(-c2ccc(O)cc2)c2sccc2c1=O`, the melting point fell in the range of 256 to 257 °C.

`CCOC(=O)C(C#N)=Cc1ccc([N+](=O)[O-])cc1C` came in with a melting point of 180 to 210 °C.

With `Cc1c(Br)cccc1N1CCn2c(cc3ccccc32)C1=O`, the melting point was in the range of 178 to 180 °C.

Compound `O=C(NCCCCCCCNC(=O)c1ccc2c(c1)OCO2)c1ccc2c(c1)OCO2` gave a melting point of 151 to 152 °C.

As to `CCC(=O)c1cc(C#N)c(=O)[nH]c1C`, the melting point lay in the range of 259 to 263 °C.

`CONC(=O)Nc1ccc(-c2sc3c(c2CN(C)Cc2ccccc2)c(=O)n(-c2ccccc2)c(=O)n3Cc2c(F)cccc2F)cc1` returned a melting point of 204 to 205 °C.

With `CCCn1cc(-c2c(-c3ccccc3F)nn3ccncc23)ccc1=O`, the melting point lay within 127 to 128 °C.

Take `OC(c1ccccc1)(c1ccc(Cl)cc1)c1nccn1Cc1ccccc1` (stereo not given): the melting point was in the range of 174 to 175 °C.

In turn, `CSc1cc(CBr)cc(SC)c1` gave a melting point of 76 to 77 °C.

In the case of `CCOC(=O)C1=C[C@@H](OC(CC)CC)[C@H](NC(C)=O)[C@@H](N=[N+]=[N-])C1`, the melting point fell in the range of 115 to 117 °C.

For `CC(C(=O)O)c1ccccc1OS(C)(=O)=O` (stereo not given), the melting point fell in the range of 94 to 96 °C.

As to `CCCn1nc2c(N)nc3ccccc3c2c1CC(C)(C)NC(=O)CC`, the melting point lay within 158 to 159 °C.

`COCc1c(O)ccc2c1CCCC2=O`: the melting point lay in the range of 142 to 143 °C.

The compound `CCOC(=O)c1c(OCC)cc(C=O)cc1OCC` displayed a melting point of 117 to 119 °C.

`CC(=O)c1cc2c(s1)SCCN(CCCCCl)C2=O`: the melting point fell in the range of 132 to 134 °C.

As to `Cc1ccc(N2CCc3ccccc32)c([N+](=O)[O-])c1`, the melting point was in the range of 93 to 95 °C.

`COc1ccc(-c2cc(-c3nccs3)c(=O)n(C)c2-c2ccncc2)cc1`: the melting point is 224 to 225 °C.

For `O=c1c2cccnc2c(-c2cccc(Cl)c2)cn1CC1CC1`, the melting point lay in the range of 120 to 122 °C.

Consider `CS(=O)(=O)c1ccc(-n2nc(C(F)(F)F)cc2-c2ccc(-c3nccs3)cc2)cc1`, for which the melting point was 206 to 207 °C.

`O=C(O)c1ccccc1-c1ccc(Cc2nc(-c3ccccc3)nc3ccccc23)cc1` returned a melting point of 210 °C.

With `CCN1CCNC(=O)C1c1ccc(Nc2nc(Br)cn(CC)c2=O)cc1` (stereo not given), the melting point fell in the range of 152 to 153 °C.

`CCCN1C(=O)C(=O)c2cc(SCCCc3ccc(C(=O)O)cc3)ccc21` came in with a melting point of 140 to 142 °C.

With `Cc1ccnc(Sc2cnc(N)s2)n1`, the melting point lay within 158 to 159 °C.

`COCc1ncnc(N2CCCCC2)c1C` came in with a melting point of 45 to 47 °C.

As to `CCCCn1cc(C(=O)C(=O)O)c2cc(-c3cccc(OC)c3)ccc21`, the melting point fell in the range of 108 to 109 °C.

In the case of `Cc1cc(SC(C)C)c(NC(=O)CCCCCCSc2nc3ccccc3o2)c(SC(C)C)n1`, the melting point was 76 to 78 °C.

In the case of `CCOC(=O)C1(c2ccccc2)CCN(CC(=O)O)CC1`, the melting point was 148 to 150 °C.

`CC1c2ccccc2-c2ccccc2N1S(=O)(=O)c1ccc(O)c(O)c1` (stereo not given) showed a melting point of 163 to 165 °C.

The compound `COC(=O)c1cc(I)ccc1N(C)S(C)(=O)=O` showed a melting point of 105 to 106 °C.

`O=C(CCCCCCS(=O)(=O)c1ccc2ccccc2c1)c1ncco1` returned a melting point of 75 to 76 °C.

Take `Cc1cccc(Cn2c(NC3CCN(CCc4c(C)nc5ccccn5c4=O)CC3)nc3cccnc32)n1`: the melting point was found to be 233 °C.

Regarding `CC(=O)c1c(-c2ccncc2)sc(-c2ccncc2)c1C`, the melting point was 137 to 138 °C.

In turn, `C=CC(=O)Oc1ccc(C(C)(c2ccc(OC(=O)C=C)cc2)c2ccc(OC(=O)C=C)cc2)cc1` came in with a melting point of 130 °C.

Take `CCOC(=O)CN(C(=O)C(F)(F)F)C(NC(C)C)P(=O)(O)OSCC` (stereo not given): the melting point fell in the range of 85 to 87 °C.

Compound `CNC(c1ccc(O)cc1)c1csc(S(N)(=O)=O)c1` (stereo not given) showed a melting point of 127 to 129 °C.

Turning to `O=C(O)CCc1ccc(O[C@H]2CCc3ccccc32)cc1`, the melting point lay in the range of 112 to 113 °C.

With `COc1ccc(-c2c(Cl)c(CN3C(=O)CCC3=O)nc3sc4c(c23)CC(C)(C)C(=O)C4(F)F)cc1`, the melting point lay within 200 to 202 °C.

Compound `CC(=C1SCCCS1)c1ccc(Sc2ccc(O)cc2)cc1` came in with a melting point of 113 to 114 °C.

For `CCOC(=O)[C@H](CC(C)C)NC(=O)C[C@@H]1CN(CC(C)(C)CO)c2ccc(Cl)cc2[C@@H](c2cccc(OC)c2OC)O1`, the melting point lay in the range of 148 to 149 °C.

Turning to `CCOC(=O)CC1CCCc2cc(O)c(C(=O)c3ccccc3)cc21` (stereo not given), the melting point was in the range of 118 to 120 °C.

In turn, `CSc1ccc(Cn2nc(-c3ccc(SC)cc3)c(-c3ccc(F)cc3)cc2=O)cc1` came in with a melting point of 116 °C.

Take `CS(=O)(=O)[C@H]1CN(Cc2ccccc2)C[C@@H]1S(C)(=O)=O`: the melting point was determined as 56.5 °C.

Regarding `CC(C)(C)NC[C@H](Cc1ccc(OCc2ccccc2)cc1)NC(=O)OC(C)(C)C`, the melting point lay in the range of 77 to 79 °C.

In the case of `CCOC(=O)COc1cc2cc(CC(C)C)sc2c(Cl)c1Cl`, the melting point fell in the range of 75 to 76 °C.

By melting point is commonly meant the temperature, or range, at which the solid turns liquid.
